pIC50: −log10 of the molar value. Where a name gives a salt, the structure may show the parent alone.
Assays:
P-gp (MDR1) = target: T1, P-gp (MDR1) (Homo sapiens, UniProt P08183); test: Efflux ratio in MDR1 transfected LLC-PK1 cells; assay type: in vitro ADME; conditions: pig, Papp(B−A)/Papp(A−B)
T1 construct: expressed in transfected cells; host or cells: LLC-PK1 (porcine kidney) cells transfected with MDR1
Experimental: (§1) Both LLC-PK1 and MDR1 transfected LLC-PK1 cells were cultured and plated according to manufacturer's recommendations with the exception that the passage media contained only 2% fetal bovine serum to extend passage time out to seven days.
(§2) Both positive and negative controls were used to assess functionality of P-gp or BCRP efflux in the assays. Stock solutions for assay controls and the test article were prepared in DMSO for final test concentrations of 10 and 1 μM, respectively. Final organic concentration in the assay was 1%. All dosing solutions contained 10 μM lucifer yellow to monitor LLC-PK1 or MDCKII cell monolayer integrity.
(§3) For the apical to basolateral determination (A to B), 75 μL of the test article in transport buffer were added to the apical side of the individual transwells and 250 μL of basolateral media, without compound or lucifer yellow, were added to each well. For the basolateral to apical determination (B to A), 250 μL of test article in transport buffer were added to each well and 75 μL transport buffer, without compound or lucifer yellow, were added to each transwell. All tests were performed in triplicate, and each compound was tested for both apical to basolateral and basolateral to apical transport. The plates were incubated for 2 hours on a Lab-Line Instruments Titer Orbital Shaker (VWR, West Chester, PA) at 50 rpm and 37° C. with 5% CO2. All culture plates were removed from the incubator and 50 μL of media were removed from the apical and basolateral portion of each well and added to 150 μL of 1 μM labetalol in 2:1 acetonitrile (acetonitrile): H2O, v/v.
(§4) The plates were read using a Molecular Devices (Sunnyvale, CA) Gemini Fluorometer to evaluate the lucifer yellow concentrations at excitation/emission wavelengths of 425/535 nm. These values were accepted when found to be below 2% for apical to basolateral and 5% basolateral to apical flux across the MDR1-transfected LLC-PK1 or BCRP-transfected MDCKII cell monolayers. The plates were sealed and the contents of each well analyzed by LC-MS/MS. The compound concentrations were determined from the ratio of the peak areas of the compound to the internal standard (labetalol) in comparison to the dosing solution.
(§5) The LC-MS/MS system was comprised of an HTS-PAL autosampler (Leap Technologies, Carrboro, NC), an HP1200 HPLC (Agilent, Palo Alto, CA), and a MDS Sciex 4000 Q Trap system (Applied Biosystems, Foster City, CA). […] The total run time, including re-equilibration, for a single injection was 1.2 minutes. Mass spectrometric detection of the analytes was accomplished using the ion spray positive mode. Analyte responses were measured by multiple reaction monitoring (MRM) of transitions unique to each compound (the protonated precursor ion and selected product ions for each test article and m/z 329 to m/z 162 for labetalol, the internal standard).
(§6) An efflux ratio is calculated from the mean apical to basolateral (A−B) Papp data and basolateral to apical (B−A) Papp data: Efflux ratio=Papp(B−A)/Papp(A−B)

[1] = system: ERK1/2(Thr202/Tyr204) phosphorylation (MEK-dependent) in A375 cells; test: Cellular Phospho-p44/42 MAPK (Erk1/2) (Thr202/Tyr204) Assay; assay type: cell-based; conditions: Homo sapiens, A-375, 1-hour incubation, pERK1/2 (Thr202/Tyr204) In-Cell Western normalized to GAPDH
Experimental: Inhibition of ERK1/2(Thr202/Tyr204) phosphorylation was determined by the following cellular assay, which comprises incubating cells with a compound for 1 hour and quantifying pERK signal by In-Cell Western on fixed cells and normalizing to GAPDH signal. A375 cells were obtained from the ATCC and grown in DMEM supplemented with 10% fetal bovine serum, penicillin/streptomycin, Glutamax®, non-essential amino acids, and sodium pyruvate. Cells were plated in 96-well plates at 30,000 cells/well and allowed to attach overnight at 37° C./5% CO2. Cells were treated with compounds prepared as a 10-point, 1:3 dilution series (range: 20 μM-0.05 nM; maximum concentration varied from 20 μM-1 μM), with a final DMSO concentration of 0.5%. Control wells contained either 0.5% DMSO alone (no inhibition control) or 1 μM of a potent control compound (complete inhibition control). After a 1-hour incubation, cells were fixed in 3.7% formaldehyde in dPBS (Dulbecco's phosphate-buffered saline) at room temperature for 20 minutes. Cells were then washed with dPBS and permeabilized in 100% MeOH at room temperature for 10 minutes. Following permeabilization, cells were washed in dPBS and incubated in LI-COR Blocking Buffer (LI-COR Biosciences, Cat #927-40000) for 1 hour or longer. Plates were then incubated with an antibody specific for the MEK-dependent ERK1/2 phosphorylation sites, threonine 202 and tyrosine 204 (Cell Signaling Technologies; Cat #9101), downstream of MEK in the MAP kinase signal transduction pathway, as well as GAPDH (Millipore; Cat #MAB374). pErk1/2 (Thr202/Tyr204) antibody was diluted in LI-COR blocking buffer containing 0.05% Tween-20 at 1:250; GAPDH was diluted at 1:2,500. The plates were incubated overnight at 4° C. After washing with PBS/0.05% Tween-20, the cells were incubated with fluorescently-labeled secondary antibodies (Anti-rabbit-Alexa Flour680, Invitrogen Cat #A21109; Anti-mouse-IRDye800CW, LI-COR Biosciences Cat #926-32210, both at 1:1000 dilution) for 1 hour. Cells were then washed, as above, and analyzed for fluorescence at both 680 and 800 nm wavelengths using the Odyssey CLx Infrared Imaging System (LI-COR Biosciences). Phosphorylated Erk1/2 (Thr202/Tyr204) signal was normalized to GAPDH signal for each well.

BCRP (hBCRP) = target: T2, BCRP (hBCRP) (Homo sapiens, UniProt Q9UNQ0); test: Efflux ratio in BCRP transfected MDCKII canine P-gp knockout cells; assay type: in vitro ADME; conditions: Papp(B−A)/Papp(A−B), read-out: Efflux ratio MDCKII-hBCRP knock-in,canine pg-P KO
T2 construct: expressed in transfected cells; host or cells: MDCKII (canine kidney) cells, canine P-gp knockout, transfected with BCRP
T2 sequence (Q9UNQ0 1-655): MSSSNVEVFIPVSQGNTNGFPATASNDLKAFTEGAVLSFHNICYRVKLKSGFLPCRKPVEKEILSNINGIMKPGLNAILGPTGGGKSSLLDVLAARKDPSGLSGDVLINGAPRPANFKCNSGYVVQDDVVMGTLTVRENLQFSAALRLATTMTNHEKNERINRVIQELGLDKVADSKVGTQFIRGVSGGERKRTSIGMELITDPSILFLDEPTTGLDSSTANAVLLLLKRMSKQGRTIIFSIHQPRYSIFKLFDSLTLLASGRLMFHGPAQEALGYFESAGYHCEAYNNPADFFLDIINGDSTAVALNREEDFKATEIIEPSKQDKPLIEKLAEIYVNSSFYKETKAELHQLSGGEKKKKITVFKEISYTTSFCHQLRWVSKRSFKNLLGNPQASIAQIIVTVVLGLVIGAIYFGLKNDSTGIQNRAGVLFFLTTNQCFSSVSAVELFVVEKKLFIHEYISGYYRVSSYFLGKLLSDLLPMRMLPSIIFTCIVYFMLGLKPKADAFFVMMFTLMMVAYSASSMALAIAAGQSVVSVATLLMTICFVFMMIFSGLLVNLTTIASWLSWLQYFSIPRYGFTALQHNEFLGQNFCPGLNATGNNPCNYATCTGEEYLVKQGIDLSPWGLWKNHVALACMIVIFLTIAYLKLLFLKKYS
Experimental: (§7) BCRP transfected MDCKII canine P-gp knockout cell line was cultured and plated according to manufacturer's recommendations.
as §2, §3, §4, §5, §6

[2] = MDR1 LLC-PK1 and BCRP MDCKII Permeability Assay: permeability coefficient (Papp); assay type: in vitro ADME; conditions: MDCK, test article 1 μM, 37° C.
Experimental: as §1, §7, §2, §3, §4, §5

T1 sequence (P08183 whole entry): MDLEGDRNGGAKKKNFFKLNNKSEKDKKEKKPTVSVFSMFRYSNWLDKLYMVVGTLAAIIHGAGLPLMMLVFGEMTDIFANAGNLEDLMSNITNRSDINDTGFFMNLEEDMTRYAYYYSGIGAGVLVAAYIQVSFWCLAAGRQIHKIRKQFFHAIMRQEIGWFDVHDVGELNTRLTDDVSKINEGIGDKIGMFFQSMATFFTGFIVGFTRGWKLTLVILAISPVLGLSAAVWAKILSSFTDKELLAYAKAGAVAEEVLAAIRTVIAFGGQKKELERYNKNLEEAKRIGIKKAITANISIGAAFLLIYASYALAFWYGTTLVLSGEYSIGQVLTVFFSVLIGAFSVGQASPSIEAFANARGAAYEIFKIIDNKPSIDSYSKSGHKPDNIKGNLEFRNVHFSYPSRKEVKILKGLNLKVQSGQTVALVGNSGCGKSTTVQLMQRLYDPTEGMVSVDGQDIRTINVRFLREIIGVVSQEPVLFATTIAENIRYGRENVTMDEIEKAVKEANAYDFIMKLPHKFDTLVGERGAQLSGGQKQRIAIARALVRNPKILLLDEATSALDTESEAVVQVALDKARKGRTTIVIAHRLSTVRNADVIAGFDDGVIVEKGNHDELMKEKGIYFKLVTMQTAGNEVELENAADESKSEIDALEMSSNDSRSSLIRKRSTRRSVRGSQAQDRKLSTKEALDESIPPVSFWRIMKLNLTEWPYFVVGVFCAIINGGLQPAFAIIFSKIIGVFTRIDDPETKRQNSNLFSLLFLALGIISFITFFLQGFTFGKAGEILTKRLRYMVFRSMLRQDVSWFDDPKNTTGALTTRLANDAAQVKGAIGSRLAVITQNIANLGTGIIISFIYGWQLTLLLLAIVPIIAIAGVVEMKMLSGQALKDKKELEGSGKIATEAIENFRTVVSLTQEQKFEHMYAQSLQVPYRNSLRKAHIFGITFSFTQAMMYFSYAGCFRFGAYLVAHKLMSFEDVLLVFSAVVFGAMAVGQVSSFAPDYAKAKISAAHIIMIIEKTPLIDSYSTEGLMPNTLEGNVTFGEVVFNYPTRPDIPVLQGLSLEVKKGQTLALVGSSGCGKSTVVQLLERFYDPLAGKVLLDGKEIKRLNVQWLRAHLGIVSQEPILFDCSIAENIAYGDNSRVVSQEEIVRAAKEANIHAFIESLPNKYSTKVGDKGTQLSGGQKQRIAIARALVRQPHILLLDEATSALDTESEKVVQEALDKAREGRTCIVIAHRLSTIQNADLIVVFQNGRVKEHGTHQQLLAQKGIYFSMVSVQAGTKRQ

SMILES	efflux ratio at 2 h, 1 μM (P-gp (MDR1))	pIC50 [1]	efflux ratio at 2 h, 1 μM (BCRP (hBCRP))	Papp at 2 h, 1 μM [2]
C[C@@H](O)CON1CCc2cc(=O)n(C)c(Nc3ccc(I)cc3F)c2C1=O [Example 32, (R)-8-((2-fluoro-4-iodophenyl)amino)-2-(2-hydroxypropoxy)-7-methyl-3,4-dihydro-2,7-naphthyridine-1,6(2H,7H)-dione]	6.5	8.00	5.2	24.8 ×10⁻⁶ cm/s
Cn1c(Nc2ccc(I)cc2F)c2c(cc1=O)CCNC2=O [Example 49, 8-((4-iodo-2-fluorophenyl)amino)-7-methyl-3,4-dihydro-2,7-naphthyridine-1,6(2H,7H)-dione trifluoroacetate]	1.4	8.70	1	39.3 ×10⁻⁶ cm/s
Cc1c2c(c(Nc3ccc(OC(F)F)cc3F)n(C)c1=O)C(=O)N(OCCO)CC2 [Example 62, 8-((4-(difluoromethoxy)-2-fluorophenyl)amino)-2-(2-hydroxyethoxy)-5,7-dimethyl-3,4-dihydro-2,7-naphthyridine-1,6(2H,7H)-dione]	5	7.77	–	26.1 ×10⁻⁶ cm/s
CSc1ccc(Nc2c3c(cc(=O)n2C)C(c2ccccc2)CNC3=O)c(F)c1 (centres unmarked) [Example 65, 8-((2-fluoro-4-(methylthio)phenyl)amino)-7-methyl-4-phenyl-3,4-dihydro-2,7-naphthyridine-1,6(2H,7H)-dione]	–	8.70	0.8	12.5 ×10⁻⁶ cm/s
CC1CN(OCCO)C(=O)c2c1cc(=O)n(C)c2Nc1ccc(Br)cc1F (centres unmarked) [Example 68, 8-((4-bromo-2-fluorophenyl)amino)-2-(2-hydroxyethoxy)-4,7-dimethyl-3,4-dihydro-2,7-naphthyridine-1,6(2H,7H)-dione]	–	8.52	2.5	18.7 ×10⁻⁶ cm/s
CSc1ccc(Nc2c3c(c(C)c(=O)n2C)CCN(OCCO)C3=O)c(F)c1 [Example 61, 8-((2-fluoro-4-(methylthio)phenyl)amino)-2-(2-hydroxyethoxy)-5,7-dimethyl-3,4-dihydro-2,7-naphthyridine-1,6(2H,7H)-dione]	3	7.96	–	26.9 ×10⁻⁶ cm/s
CC1CNC(=O)c2c1cc(=O)n(C)c2Nc1ccc(Br)cc1F (centres unmarked) [Example 66, 8-((4-bromo-2-fluorophenyl)amino)-4,7-dimethyl-3,4-dihydro-2,7-naphthyrdine-1,6(2H,7H)-dione]	–	7.57	1	24.9 ×10⁻⁶ cm/s
CSc1ccc(Nc2c3c(cc(=O)n2C)C(C)CNC3=O)c(F)c1 (centres unmarked) [Example 67, 8-((2-fluoro-4-(methylthio)phenyl)amino)-4,7-dimethyl-3,4-dihydro-2,7-naphthyrdine-1,6(2H,7H)-dione]	–	8.10	1.1	28.3 ×10⁻⁶ cm/s
CSc1ccc(Nc2c3c(cc(=O)n2C)C(C)CN(OCCO)C3=O)c(F)c1 (centres unmarked) [Example 69, 8-((2-fluoro-4-(methylthio)phenyl)amino)-2-(2-hydroxyethoxy)-4,7-dimethyl-3,4-dihydro-2,7-naphthyridine-1,6(2H,7H)-dione]	–	8.70	2.3	19.6 ×10⁻⁶ cm/s
Cc1c2c(c(Nc3ccc(Br)cc3F)n(C)c1=O)C(=O)NCC2 [Example 47, 8-((4-bromo-2-fluorophenyl)amino)-5,7-dimethyl-3,4-dihydro-2,7-naphthyridine-1,6(2H,7H)-dione]	1.3	7.01	–	31.5 ×10⁻⁶ cm/s
CC(C)c1ccc(Nc2c3c(cc(=O)n2C)CCN(OCCO)C3=O)c(F)c1 [Example 18, 8-((2-fluoro-4-isopropylphenyl)amino)-2-(2-hydroxyethoxy)-7-methyl-3,4-dihydro-2,7-naphthyrdine-1,6(2H,7H)-dione]	2.3	7.41	2	–

From patent US11802127B2, “3,4-dihydro-2,7-naphthyridine-1,6(2H,7H)-diones as MEK inhibitors” (Pfizer Inc., priority 2021, dated 2023)
